# Data reported in US10226453B2, “3-(1H-indol-2-yl)-1H-pyrazolo[4,3-B]pyridines and therapeutic uses thereof” (Samumed, LLC, priority 2015, dated 2019).
# How the values were obtained:
# Type in all cases: cell-based
# SW480 colon cancer cells = test: Cell viability assay (CellTiter-Blue), SW480 colon cancer cells; settings: Homo sapiens, 96 h, four days, CellTiter-Blue
# Method: Representative compounds were screened using the following assay procedure to assess the effect on cell viability as described below.
# Each compound was dissolved in DMSO as a 10 mM stock and used to prepare compound source plates. Serial dilution (1:3, 8-point dose-response curves from 10 μM to 0.0045 μM) and compound transfer was performed using the ECHO 550 (Labcyte, Sunnyvale, Calif.) into 96-well clear bottom, black-walled plates (Corning—Costar).
# Approximately 2×10^3 SW480 colon cancer cells were seeded into each well and allowed to incubate in the presence or absence of compound for four days at 37° C./5% CO2. Eight replicates of DMSO-treated cells served as controls and cells treated with compound were performed in duplicate.
# After incubation, 20 μL of CellTiter-Blue (Promega) was added to each well allowed to incubate for approximately 3 hours. This reagent was a buffered solution which contains resazurin, metabolically active cells were able to reduce rezarurin (blue) into resorufin (pink) which was highly fluorescent. This measured fluorescence was used as a readout for cell viability.
# After incubation, the plates were read at Ex 560 nm Em 590 nm (Cytation 3, BioTek). Dose-response curves were generated and EC50 concentration values were calculated using non-linear regression curve fit in the GraphPad Prism (San Diego, Calif.) or Dotmatics' Studies Software (Bishops Stortford, UK). For EC50 of >10 μM, the percent inhibition at 10 μM is provided.
# [1] = test system: primary human fibroblasts derived from IPF patients (LL29 cells) treated with TGF-β1; test: Inhibition of the fibrotic process: αSMA staining in TGF-β1 treated primary human fibroblasts from IPF patients (LL29 cells); settings: Fibroblast, 96 h, TGF-β1 20 ng/mL, 4 days, % αSMA positive cells
# From the text: Representative compounds were screened using primary human fibroblasts (derived from IPF patients) treated with TGF-β1 to determine their ability to inhibit the fibrotic process.
# Primary human fibroblasts derived from IPF patients (LL29 cells) [^1Xiaoqiu Liu, et. al., “Fibrotic Lung Fibroblasts Show Blunted Inhibition by cAMP Due to Deficient cAMP Response Element-Binding Protein Phosphorylation”, Journal of Pharmacology and Experimental Therapeutics (2005), 315(2), 678-687; ^2Watts, K. L., et. al., “RhoA signaling modulates cyclin D1 expression in human lung fibroblasts; implications for idiopathic pulmonary fibrosis”, Respiratory Research (2006), 7(1), 88] were obtained from American Type Culture Collection (ATCC) and expanded in F12 medium supplemented with 15% Fetal Bovine Serum and Penicillin/Streptomycin.
# Each compound was dissolved in DMSO as a 10 mM stock and used to prepare compound source plates. Serial dilution (1:2, 11-point dose-response curves from 10 μM to 1.87 nM) and compound transfer was performed using the ECHO 550 (Labcyte, Sunnyvale, Calif.) into 384-well clear bottom assay plates (Greiner Bio-One) with appropriate DMSO backfill for a final DMSO concentration of 0.1%. LL29 cells are plated at 1,500 cells/well in 80 μL/well F12 medium supplemented with 1% Fetal Bovine Serum. One hour after addition of the cells, TGF-β1 (Peprotech; 20 ng/mL) was added to the plates to induce fibrosis (ref. 1 and 2 above). Wells treated with TGF-β1 and containing DMSO were used as controls. Cells were incubated at 37° C. and 5% CO2 for 4 days. Following incubation for 4 days, SYTOX green nucleic acid stain (Life Technologies [Thermo Fisher Scientific]) was added to the wells at a final concentration of 1 μM and incubated at room temperature for 30 min. Cells were then fixed using 4% formaldehyde (Electron Microscopy Sciences), washed 3 times with PBS followed by blocking and permeabilization using 3% Bovine Serum Albumin (BSA; Sigma) and 0.3% Triton X-100 (Sigma) in PBS. Cells were then stained with antibody specific to α-smooth muscle actin (αSMA; Abcam) (ref. 1 and 2 above) in 3% Bovine Serum Albumin (BSA; Sigma) and 0.3% Triton X-100 (Sigma) in PBS, and incubated overnight at 4° C. Cells were then washed 3 times with PBS, followed by incubation with Alexa Flor-647 conjugated secondary antibody (Life Technologies [Thermo Fisher Scientific]) and DAPI at room temperature for 1 hour. Cells were then washed 3 times with PBS and plates were sealed for imaging. αSMA staining was imaged by excitation at 630 nm and emission at 665 nm and quantified using the Compartmental Analysis program on the CellInsight CX5 (Thermo Scientific). Dead or apoptotic cells were excluded from analysis based on positive SYTOX green staining. % of total cells positive for αSMA were counted in each well and normalized to the average of 11 wells treated with TGF-β1 on the same plate using Dotmatics' Studies Software. The normalized averages (fold change over untreated) of 3 replicate wells for each compound concentration were used to create dose-responses curves and EC50 values were calculated using non-linear regression curve fit in the Dotmatics' Studies Software. For EC50 of >10 μM, the percent inhibition at 10 μM is provided.
# IL-6 (THP-1 cells) = test: IL-6 inhibition in LPS-stimulated THP-1 human monocyte cells (HTRF); settings: LPS 500 ng/mL, 22 hours, IL6 HTRF
# Method: Human monocyte cell line (THP-1 cells; Catalog # TIB-202, ATCC, Manassas, Va.) were cultured in Roswell Park Memorial Institute (RPMI) 1640 Medium (Catalog #21870-100, Buffalo, N.Y.) with 1% L-glutamine, 1% HEPES, 1% Sodium Pyruvate, 2% Sodium Bicarbonate supplemented with 100 units/mL penicillin, 50 μg/mL streptomycin, 2-mercaptoethanol (0.05 mM) [basal medium] and 10% fetal bovine serum (Catalog #16140089, Life Technologies, Carlsbad, Calif.) at 37° C. and 5% CO2.
# THP-1 cells were cultured in basal media with 1% FBS for 24 hours before the start of the assay. Each compound was dissolved in DMSO as a 10 mM stock and used to prepare compound source plates. Serial dilution (1:3, 10-point dose-response curves starting from 10 μM) and compound transfer was performed using the ECHO 550 (Labcyte, Sunnyvale, Calif.) into 384-well white low volume assay plates (Greiner Bio-One) with appropriate DMSO backfill for a final DMSO concentration of 0.1%. THP-1 cells were plated at 5000 cells/well in the 384-well plates and incubated at 37° C. for 2 h. 500 ng/mL of LPS was added after 2 hours and cells were incubated for another 22 hours at 37° C. Plates were spun in a centrifuge for 1 minute at […] and a mixture of anti-IL6 XL665, and anti-IL6 Cryptate diluted in reconstitution buffer (Cisbio Inc.) was added to each well. Following incubation for 3 hrs at room temperature, Homogeneous Time-Resolved Fluorescence (HTRF) was measured using the Envision (Perkin Elmer) at 665 nm and […]. The ratio of fluorescence at 665 nm to 620 nm was used as a readout for IL6 quantification. All samples were processed in duplicate. Readings were normalized to DMSO treated cells and normalized activities were utilized for EC50 calculations using the dose-response log (inhibitor) vs. response-variable slope (four parameters) nonlinear regression feature available in GraphPad Prism 5.0 (or Dotmatics). For EC50 of >10 μM, the percent inhibition at 10 μM is provided.
# [2] = test system: Wnt activity (Sp5-Luc reporter, SW480 colon carcinoma cells); test: Wnt activity screening assay: Sp5-Luc reporter gene in SW480 colon carcinoma cells; settings: Homo sapiens, overnight incubation, 10-point curve from 10 μM
# From the text: The screening assay for Wnt activity is described as follows. Reporter cell lines can be generated by stably transducing cancer cell lines (e.g., colon cancer) or primary cells (e.g., IEC-6 intestinal cells) with a lentiviral construct that includes a Wnt-responsive promoter driving expression of the firefly luciferase gene.
# SW480 colon carcinoma cells were transduced with a lentiviral vector expressing luciferase with a human Sp5 promoter consisting of a sequence of eight TCF/LEF binding sites. SW480 cells stably expressing the Sp5-Luc reporter gene and a hygromycin resistance gene were selected by treatment with 150 μg/mL of hygromycin for 7 days. These stably transduced SW480 cells were expanded in cell culture and used for all further screening activities. Each compound was dissolved in DMSO as a 10 mM stock and used to prepare compound source plates. Serial dilution (1:3, 10-point dose-response curves starting from 10 μM) and compound transfer was performed using the ECHO 550 (Labcyte, Sunnyvale, Calif.) into 384-well white solid bottom assay plates (Greiner Bio-One) with appropriate DMSO backfill for a final DMSO concentration of 0.1%. For Sp5-Luc reporter gene assays, the cells were plated at 4,000 cells/well in 384-well plates with medium containing 1% fetal bovine serum and incubated overnight at 37° C. and 5% CO2. Following incubation, 20 μl of BrightGlo luminescence reagent (Promega) was added to each well of the 384-well assay plates. The plates were placed on an orbital shaker for 2 min and then luminescence was quantified using the Envision (Perkin Elmer) plate reader. Readings were normalized to DMSO only treated cells, and normalized activities were utilized for EC50 calculations using the dose-response log (inhibitor) vs. response-variable slope (four parameters) nonlinear regression feature available in GraphPad Prism 5.0 (or Dotmatics). For EC50 of >10 μM, the percent inhibition at 10 μM is provided.
Structure (SMILES),EC50 (SW480 colon cancer cells) [nM],EC50 (IL-6 (THP-1 cells)) [nM],EC50 [2] [nM],EC50 [1] [nM]
"Cn1cc(-c2ccc3[nH]nc(-c4cc5c(-c6cccc(F)c6)cccc5[nH]4)c3n2)cn1 [Compound 536, 3-(4-(3-Fluorophenyl)-1H-indol-2-yl)-5-(1-methyl-1H-pyrazol-4-yl)-1H-pyrazolo[4,3-b]pyridine]",2780,23,338,230
"O=C(Nc1cncc(-c2ccc3[nH]nc(-c4cc5c(-c6ccccc6F)cccc5[nH]4)c3n2)c1)C1CC1 [Compound 76, N-(5-(3-(4-(2-Fluorophenyl)-1H-indol-2-yl)-1H-pyrazolo[4,3-b]pyridin-5-yl)pyridin-3-yl)cyclopropanecarboxamide]",895,51,164,502
"CCCCC(=O)Nc1cncc(-c2ccc3[nH]nc(-c4cc5ncccc5[nH]4)c3n2)c1 [Compound 523, N-(5-(3-(1H-Pyrrolo[3,2-b]pyridin-2-yl)-1H-pyrazolo[4,3-b]pyridin-5-yl)pyridin-3-yl)pentanamide]",943,20,550,697
"CC(C)(C)CC(=O)Nc1cncc(-c2ccc3[nH]nc(-c4cc5c(-c6cc(F)cc(CNS(C)(=O)=O)c6)cccc5[nH]4)c3n2)c1 [Compound 492, N-(5-(3-(4-(3-Fluoro-5-(methylsulfonamidomethyl)phenyl)-1H-indol-2-yl)-1H-pyrazolo[4,3-b]pyridin-5-yl)pyridin-3-yl)-3,3-dimethylbutanamide]",1060,261,292,345
"CC(C)CC(=O)Nc1cncc(-c2ccc3[nH]nc(-c4cc5c(-c6ccccc6F)cccc5[nH]4)c3n2)c1 [Compound 58, N-(5-(3-(4-(2-Fluorophenyl)-1H-indol-2-yl)-1H-pyrazolo[4,3-b]pyridin-5-yl)pyridin-3-yl)-3-methylbutanamide]",1210,72,254,628
"CN(C)CCNc1cc(F)cc(-c2cccc3[nH]c(-c4n[nH]c5ccc(-c6cncc(NC(=O)Cc7ccccc7)c6)nc45)cc23)c1 [Compound 458, N-(5-(3-(4-(3-((2-(Dimethylamino)ethyl)amino)-5-fluorophenyl)-1H-indol-2-yl)-1H-pyrazolo[4,3-b]pyridin-5-yl)pyridin-3-yl)-2-phenylacetamide]",970,1460,1030,1860

# The next lines start with results.
EC50 (SW480 colon cancer cells) [nM],EC50 (IL-6 (THP-1 cells)) [nM],EC50 [2] [nM],Structure (SMILES),EC50 [1] [nM]
1930,359,2140,"CC(C)CC(=O)Nc1cncc(-c2ccc3[nH]nc(-c4cc5c(N6CCN(C)CC6)cccc5[nH]4)c3n2)c1 [Compound 226, 3-Methyl-N-(5-(3-(4-(4-methylpiperazin-1-yl)-1H-indol-2-yl)-1H-pyrazolo [4,3-b]pyridin-5-yl)pyridin-3-yl)butanamide]",2550
827,106,306,"CS(=O)(=O)NCc1cc(F)cc(-c2cccc3[nH]c(-c4n[nH]c5ccc(-c6cncc(NC(=O)C7CCCC7)c6)nc45)cc23)c1 [Compound 498, N-(5-(3-(4-(3-Fluoro-5-(methylsulfonamidomethyl)phenyl)-1H-indol-2-yl)-1H-pyrazolo[4,3-b]pyridin-5-yl)pyridin-3-yl)cyclopentanecarboxamide]",403
3150,1520,899,"CN(C)Cc1cncc(-c2ccc3[nH]nc(-c4cc5c(N6CCCCC6)cccc5[nH]4)c3n2)c1 [Compound 181, N,N-Dimethyl-1-(5-(3-(4-(piperidin-1-yl)-1H-indol-2-yl)-1H-pyrazolo[4,3-b]pyridin-5-yl)pyridin-3-yl)methanamine]",870
693,298,196,"CS(=O)(=O)NCc1cc(F)cc(-c2cccc3[nH]c(-c4n[nH]c5ccc(-c6cncc(CN7CCC(F)(F)C7)c6)nc45)cc23)c1 [Compound 502, N-(3-(2-(5-(5-((3,3-Difluoropyrrolidin-1-yl)methyl)pyridin-3-yl)-1H-pyrazolo[4,3-b]pyridin-3-yl)-1H-indol-4-yl)-5-fluorobenzyl)methanesulfonamide]",148
